Test results published in patent US10059674B2, “Design, synthesis, and biological evaluation of 1-methyl-1, 4-dihyrdoindeno[1,2-C]pyrazole analogues as potential anticaner agents targeting tubulin colchicine binding site” (ACT PHARMA CO., LTD., priority 2016, dated 2018).
pIC50: −log10 of the molar value. Read-outs that look alike come from different tables or passages of the source.

Tests used:
[1] = system: human breast adenocarcinoma (MCF-7) cells; assay: Anti-proliferation test (MTT colorimetry); format: cell-based; conditions: MCF7, MCF-7, 72 h
Protocol: (§1) The compound of formula 1 (prepared in embodiment 1), and the compound of formula 2 (prepared in embodiment 2) are given at different concentrations to human hepatocellular carcinoma (HepG2) cells, human prostate carcinoma (PC3) cells, human cervical carcinoma (HeLa) cells, human breast adenocarcinoma (MCF-7) cells, and human leukemia (K562) cells; all the groups are incubated 72 h in an incubator containing 5% of CO2 at 37° C., and then inhabitation ratios of the compounds to the tumor cells are measured by using methyl thiazolyl tetrazolium (MTT) colorimetry, and results are shown in table 1.

[2] = system: human cervical carcinoma (HeLa) cells; assay: Anti-proliferation test (MTT colorimetry); format: cell-based; conditions: 72 h
Protocol: as §1

[3] = system: human hepatocellular carcinoma (HepG2) cells; assay: Anti-proliferation test (MTT colorimetry); format: cell-based; conditions: HepG2, 72 h
Protocol: as §1

[4] = system: human leukemia (K562) cells; assay: Anti-proliferation test (MTT colorimetry); format: cell-based; conditions: K562, 72 h
Protocol: as §1

[5] = system: human prostate carcinoma (PC3) cells; assay: Anti-proliferation test (MTT colorimetry); format: cell-based; conditions: PC-3, PC3, 72 h
Protocol: as §1

[6] = human, microsomes, 1 µM, pH 7.47
[7] = dog, microsomes, 1 µM, pH 7.47
in vitro = conditions: rat, microsomes, pH 7.47
[8] = MDCK cell permeability test; conditions: dog, MDCK, 90 min
MDCK cells = assay: MDCK cell permeability test; conditions: for Efllux ratio: Papp(B→A)/Papp(A→B)
P-gp = assay: MDCK cell permeability test; conditions: dog, MDCK

Compound: CCOc1cccc(Nc2nn(C)c3c2Cc2cc(OCC)c(OCC(N)=O)cc2-3)c1 [LL-01]
- pIC50 [1]: 8.49
- pIC50 [2]: 8.13
- pIC50 [3]: 7.59
- pIC50 [4]: 8.15
- pIC50 [5]: 7.72
- Remainder ([6]; 0 h): 100.00%
- Remainder ([6]; 10 min): 78.76%
- Remainder ([6]; 0.5 h): 56.18%
- Remainder ([6]; 1.5 h): 23.87%
- Remainder ([7]; 0 h): 100.00%
- Remainder ([7]; 10 min): 74.20%
- Remainder ([7]; 0.5 h): 38.61%
- Remainder ([7]; 1.5 h): 7.93%
- half-life at 1 µM (in vitro): 56.8 min
- microsomal CLint at 1 µM (in vitro): 24.4 µL/min/mg
- Papp A→B at 90 min ([8]; Apparent permeability coefficient A→B, 1st line of the compound (condition not given)): 0.6 ×10⁻⁶ cm/s
- Papp A→B at 90 min ([8]; Apparent permeability coefficient A→B, 2nd line of the compound (condition not given)): 16 ×10⁻⁶ cm/s
- Papp A→B at 90 min, 10 µM ([8]; Apparent permeability coefficient A→B, 3rd line of the compound (condition not given)): 18 ×10⁻⁶ cm/s
- Papp B→A at 90 min ([8]; Apparent permeability coefficient B→A, 1st line of the compound (condition not given)): 0.8 ×10⁻⁶ cm/s
- Papp B→A at 90 min ([8]; Apparent permeability coefficient B→A, 2nd line of the compound (condition not given)): 18.9 ×10⁻⁶ cm/s
- Papp B→A at 90 min, 10 µM ([8]; Apparent permeability coefficient B→A, 3rd line of the compound (condition not given)): 19.6 ×10⁻⁶ cm/s
- recovery at 90 min ([8]; Recovery rate A→B, 2nd line of the compound (condition not given)): 69.4%
- recovery at 90 min, 10 µM ([8]; Recovery rate A→B, 3rd line of the compound (condition not given)): 62.3%
- recovery at 90 min ([8]; Recovery rate A→B, 1st line of the compound (condition not given; method: without / with 10 μM cyclosporine A)): 93.8%
- recovery at 90 min ([8]; Recovery rate B→A, 1st line of the compound (condition not given)): 102%
- recovery at 90 min ([8]; Recovery rate B→A, 2nd line of the compound (condition not given)): 85.4%
- recovery at 90 min, 10 µM ([8]; Recovery rate B→A, 3rd line of the compound (condition not given)): 84.6%
- PGP substrate judgment (MDCK cells; MDCK cells): is not the PGP substrate and No
- Permeability Judgment (MDCK cells; MDCK cells): moderate permeability
- Efllux ratio (MDCK cells; 2nd line of the compound (condition not given)): 1.2
- Efllux ratio (MDCK cells; 3rd line of the compound (condition not given)): 1.1
- efflux ratio at 90 min (P-gp): 1.2
